From US7718641B2, “Pyrrolo [3,4-H] isoquinoline compounds and methods for modulating gated ion channels” (Aros Pharma ApS, priority 2005, dated 2010)

Target: T1, hASIC1a (Homo sapiens, UniProt P78348)
T1 sequence (P78348 1-528): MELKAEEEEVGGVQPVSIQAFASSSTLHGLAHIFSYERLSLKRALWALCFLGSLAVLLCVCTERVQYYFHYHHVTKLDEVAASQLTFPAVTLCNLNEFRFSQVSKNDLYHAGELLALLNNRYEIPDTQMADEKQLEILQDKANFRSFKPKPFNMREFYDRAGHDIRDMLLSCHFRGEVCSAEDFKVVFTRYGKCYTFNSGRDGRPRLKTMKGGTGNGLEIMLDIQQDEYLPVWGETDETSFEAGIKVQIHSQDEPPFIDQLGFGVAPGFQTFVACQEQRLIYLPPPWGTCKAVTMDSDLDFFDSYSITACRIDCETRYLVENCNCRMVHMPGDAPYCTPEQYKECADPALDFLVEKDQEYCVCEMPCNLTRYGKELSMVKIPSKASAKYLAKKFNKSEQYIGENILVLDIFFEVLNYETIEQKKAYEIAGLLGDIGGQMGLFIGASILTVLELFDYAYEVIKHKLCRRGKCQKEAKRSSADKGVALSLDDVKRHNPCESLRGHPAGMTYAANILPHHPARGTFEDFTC
Test: Whole-cell patch clamp of HEK293 cells expressing homomeric hASIC1a
Assay type: cell-based
Parameters: expressed in transfected cells; host or cells: HEK293
Settings: 10 μM, HEK293, -60 mV, pH 7.4 to pH 6.5 for 5 sec, n=3
Experimental: HEK293 cells were transfected either with hASIC1a alone or co-transfected with hASIC1a and hASIC3. Acid-induced inward currents were recorded in the presence and absence of compound A (10 μM) using the whole-cell configuration of the patch-clamp method (voltage clamp mode).
All experiments are performed at room temperature (20-25° C.) in voltage clamp using conventional whole cell patch clamp methods (Neher, E., et al. (1978) Pfluegers Arch 375:219-228).
Coverslips with the cells are transferred to a 15 μl experimental chamber mounted on the stage of an inverted microscope (IMT-2, Olympus) supplied with Nomarski optics. […] The cells are held at a holding voltage of −60 mV and at the start of each experiment the current is continuously measured for 45 s to ensure a stable baseline. […] Current amplitudes are measured at the peak of the responses, and effect of the compounds is calculated as the amplitude at compound equilibrium divided by the amplitude of the current evoked by the pulse just before the compound was included. […]
FIGS. 4A and 4B show response to acidic saline in the absence or presence of 10 μM of Compound A recorded from HEK293 cells expressing either hASIC1a alone or HEK293 cells co-expressing hASIC1a and hASIC3 [voltage clamped at −60 mV, extracellular solution surrounding cells was changed rapidly from pH 7.4 to pH 6.5 for 5 sec] […]

## COc1ccc(F)cc1-c1cc2c(c3c1CCN(C)C3)NC(=O)/C2=N/O [Compound A, 5-(5-fluoro-2-methoxyphenyl)-6,7,8,9-tetrahydro-3-(hydroxyimino)-8-methyl-1H-pyrrolo[3,2-h]isoquinoline-2(3H)-one]
  effect on acid-induced inward current, hASIC1a alone: effectively modulates the activity
